ChEMBL document CHEMBL4257222, “Use of small molecule inhibitors targeting eya tyrosine phosphatase” (2016)
Active and inactive are the calls of the source. No cut-off for these calls is given here.

What was measured:
HUVEC [1] = assay: Toxicity in HUVEC assessed as reduction in cell proliferation incubated for 3 days by WST8 assay; assay type: cell-based; parameters: scale not given: the % may be the effect or the level left; settings: human, 72 h
HUVEC [2] = assay: Inhibition of tube formation of HUVEC by matrigel tube-formation assay; assay type: functional, cell-based; settings: Homo sapiens
HUVEC [3] = assay: Inhibition of tube formation of HUVEC assessed as induction of endothelial cells aggregation by matrigel tube-formation assay; assay type: functional, cell-based; settings: Homo sapiens
HUVEC [4] = assay: Inhibition of tube formation of HUVEC assessed as induction of reduction in endothelial cells organization after 2 hrs by matrigel tube-formation assay; assay type: functional, cell-based; settings: Homo sapiens
HUVEC [5] = assay: Inhibition of tube formation of HUVEC assessed as induction of reduction in endothelial cells organization after 6 hrs by matrigel tube-formation assay; assay type: functional, cell-based; settings: Homo sapiens
HUVEC [6] = assay: Inhibition of tube formation of HUVEC assessed as reduction of interconnecting cellular aggregates of endothelial cells after 20 hrs by matrigel tube-formation assay; assay type: functional, cell-based; settings: Homo sapiens
HUVEC [7] = assay: Inhibition of tube formation of HUVEC in presence of hight level of fetal bovine serum by matrigel tube-formation assay; assay type: functional, cell-based; settings: Homo sapiens
Aorta [8] = assay: Inhibition of sprouting in mouse aorta cultured in collagen gels at 7.5 uM by aortic ring sprouting assay; assay type: functional, tissue-based
Aorta [9] = assay: Inhibition of branching in mouse aorta cultured in collagen gels assessed as reduction in number of branch-points at 7.5 uM by aortic ring sprouting assay; assay type: functional, tissue-based
[10] = target: T1, Protein phosphatase EYA2 (Homo sapiens) (UniProt O00167); assay: Inhibition of Eya2 (unknown origin) expressed in human MCF10A cells assessed as reduction in cell migration; assay type: cell-based
T1 sequence (whole entry): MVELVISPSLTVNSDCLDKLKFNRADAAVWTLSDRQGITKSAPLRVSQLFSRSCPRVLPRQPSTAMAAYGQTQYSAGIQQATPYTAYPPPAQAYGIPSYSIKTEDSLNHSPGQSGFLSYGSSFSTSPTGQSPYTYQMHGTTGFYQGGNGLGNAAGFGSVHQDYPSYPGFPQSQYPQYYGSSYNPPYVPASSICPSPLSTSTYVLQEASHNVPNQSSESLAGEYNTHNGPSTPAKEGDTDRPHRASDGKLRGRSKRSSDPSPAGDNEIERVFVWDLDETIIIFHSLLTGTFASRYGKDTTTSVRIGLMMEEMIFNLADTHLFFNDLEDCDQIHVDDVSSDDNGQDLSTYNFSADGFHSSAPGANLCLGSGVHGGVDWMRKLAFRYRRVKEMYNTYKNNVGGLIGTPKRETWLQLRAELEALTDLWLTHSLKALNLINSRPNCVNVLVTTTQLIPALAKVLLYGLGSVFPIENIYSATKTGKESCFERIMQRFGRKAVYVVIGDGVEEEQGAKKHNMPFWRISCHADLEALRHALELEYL

[11] = system: T2, Protein phosphatase EYA2 (Homo sapiens), O00167 [D250N]; assay: Inhibition of Eya2 D250N mutant (unknown origin) expressed in human MCF10A cells assessed as reduction in cell migration; assay type: cell-based; settings: concentration not given here
T2 sequence (whole entry): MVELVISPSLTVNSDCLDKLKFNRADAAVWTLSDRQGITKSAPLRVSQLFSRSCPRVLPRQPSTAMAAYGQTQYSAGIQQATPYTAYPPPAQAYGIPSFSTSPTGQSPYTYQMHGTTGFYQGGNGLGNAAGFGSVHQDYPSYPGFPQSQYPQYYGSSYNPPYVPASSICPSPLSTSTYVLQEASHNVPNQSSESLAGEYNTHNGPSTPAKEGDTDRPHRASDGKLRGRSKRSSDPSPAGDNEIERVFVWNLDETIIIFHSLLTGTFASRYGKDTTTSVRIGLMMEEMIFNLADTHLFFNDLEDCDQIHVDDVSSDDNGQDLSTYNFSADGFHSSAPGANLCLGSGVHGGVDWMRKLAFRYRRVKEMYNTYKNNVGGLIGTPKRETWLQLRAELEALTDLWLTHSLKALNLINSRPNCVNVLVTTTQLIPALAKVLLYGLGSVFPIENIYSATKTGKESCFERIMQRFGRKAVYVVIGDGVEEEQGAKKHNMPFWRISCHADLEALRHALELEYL

MCF-10A = assay: Toxicity in human MCF10A cells expressing Eya2 (unknown origin) assessed as effect on cell proliferation of; assay type: cell-based
HUVEC [12] = assay: Inhibition of cell motility of HUVEC; assay type: functional, cell-based; settings: Homo sapiens
HUVEC [13] = assay: Toxicity in HUVEC assessed as effect on cell proliferation by MTT assay; assay type: cell-based; settings: human
HUVEC [14] = assay: Inhibition of tubulogenesis of HUVEC grown on growth factor-reduced matrigel at 7.5 uM by inverted microscopy; assay type: functional, cell-based; settings: Homo sapiens
Aorta [15] = assay: Inhibition of endothelial cell migration in VEGF165-stimulated […] mouse aortic rings incubated in collagen matrix assessed as induction of shorter sprouts incubated for 10 days by aortic ring assay; assay type: functional, tissue-based
Aorta [16] = assay: Inhibition of endothelial cell migration in VEGF165-stimulated […] mouse aortic rings incubated in collagen matrix assessed as reduction in microvascular density incubated for 10 days by aortic ring assay; assay type: functional, tissue-based
Danio rerio [17] = species: Danio rerio; assay: Inhibition of angiogenesis in FLK1-GFP trangenic zebrafish model of angiogenesis assessed as induction of defects in developing vasculature measured after 24 hpf stage by fluorescence microscopy; assay type: functional, organism-based
Danio rerio [18] = species: Danio rerio; assay: Inhibition of angiogenesis in FLK1-GFP trangenic zebrafish model of angiogenesis assessed as reduction in intersegmental vessel number and extension measured after 24 hpf stage by fluorescence microscopy; assay type: functional, organism-based
Danio rerio [19] = species: Danio rerio; assay: Inhibition of angiogenesis in FLK1-GFP trangenic zebrafish model of angiogenesis assessed as effect on vasculature exposed to compound starting at later stage (20 hpf) by fluorescence microscopy; assay type: functional, organism-based
Mus musculus [20] = species: Mus musculus; assay: Inhibition of proliferative retinopathy in mouse model of oxygen-induced retinopathy assessed as reduction in formation of neovascular tufts at 50 to 100 pmole injected at P12 and measured at P16; assay type: functional, organism-based
Mus musculus [21] = species: Mus musculus; assay: Inhibition of proliferative retinopathy in mouse model of oxygen-induced retinopathy assessed as reduction in revascularization into the vaso-obliterated area at 50 to 100 pmole injected at P12 and measured at P16; assay type: functional, organism-based
A673 = assay: Antitumor activity against human A673 cells xenografted in nude mouse assessed as inhibition tumor growth at 25 mg/kg/day, ip and measured every other day for 2 weeks; assay type: functional, organism-based
[22] = target: T3, Protein phosphatase EYA3 (Homo sapiens) (UniProt Q99504); settings: 50 uM
T3 sequence (whole entry): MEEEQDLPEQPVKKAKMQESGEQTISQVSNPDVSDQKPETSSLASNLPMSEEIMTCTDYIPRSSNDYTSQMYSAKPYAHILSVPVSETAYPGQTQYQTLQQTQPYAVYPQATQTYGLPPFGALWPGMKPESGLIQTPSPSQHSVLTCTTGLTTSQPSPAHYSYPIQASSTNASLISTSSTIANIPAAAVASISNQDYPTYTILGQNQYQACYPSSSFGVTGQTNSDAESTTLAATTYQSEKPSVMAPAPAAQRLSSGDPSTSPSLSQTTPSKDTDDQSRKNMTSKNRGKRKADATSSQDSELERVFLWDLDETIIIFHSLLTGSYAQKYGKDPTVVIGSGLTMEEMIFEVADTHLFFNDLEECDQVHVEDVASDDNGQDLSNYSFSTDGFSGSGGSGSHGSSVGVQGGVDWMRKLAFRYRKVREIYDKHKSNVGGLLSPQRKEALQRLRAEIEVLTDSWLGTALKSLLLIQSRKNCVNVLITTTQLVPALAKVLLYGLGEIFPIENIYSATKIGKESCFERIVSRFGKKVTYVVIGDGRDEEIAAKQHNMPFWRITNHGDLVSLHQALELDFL
Description: Inhibition of human Eya3 isoform 2 (127 to 573 residues) interaction with His-tagged SIX2 at 50 uM by Ni-NTA agarose gel based pull down assay

[23] = Selectivity index, ratio of IC50 for inhibition of PTP1B (unknown origin) by p-nitrophenylphosphate assay to IC50 for inhibition of mouse Eya3 catalytic domain (223 to 510 residues) by p-nitrophenylphosphate assay
[24] = target: T1, Protein phosphatase EYA2 (Homo sapiens); assay: Inhibition of Eya2 (unknown origin) expressed in human MCF10A cells assessed as reduction in cell migration at 1 uM; assay type: cell-based
HUVEC [25] = assay: Inhibition of tubulogenesis of HUVEC grown on growth factor-reduced matrigel by inverted microscopy; assay type: functional, cell-based; settings: Homo sapiens
HUVEC [26] = assay: Inhibition of tubulogenesis of HUVEC grown on growth factor-reduced matrigel at 2.5 uM by inverted microscopy; assay type: functional; settings: Homo sapiens
Mus musculus [27] = species: Mus musculus; assay: Inhibition of post-natal retinal angiogenesis in postnatal mouse assessed as reduction in branch points at 100 uM injected into eyes at P0.5, P3 and P5; assay type: functional, organism-based

inhibition [10] | inhibition [11] [%] | SMILES | Activity (HUVEC [1]) | inhibition (HUVEC [2]) | inhibition (Aorta [8]) | inhibition (Aorta [9]) | Activity (MCF-10A) | inhibition (HUVEC [12]) | Activity (HUVEC [13]) | inhibition (Aorta [15]) | inhibition (Aorta [16]) | inhibition (Danio rerio [17]) | inhibition (Danio rerio [18]) | inhibition (Danio rerio [19]) | inhibition (Mus musculus [20]) | inhibition (Mus musculus [21]) | other results
– | – | CCc1oc2cc(O)ccc2c1C(=O)c1cc(Br)c(O)c(Br)c1 | > 50% | Active | Active | Active | – | – | – | – | – | – | – | – | – | – | inhibition (HUVEC [3]): Active; inhibition (HUVEC [4]): Active; inhibition (HUVEC [5]): Active; inhibition (HUVEC [6]): Active; inhibition (HUVEC [7]): inactive
– | – | CC(O)c1oc2ccccc2c1C(=O)c1cc(Br)c(O)c(Br)c1 (stereo not given) | – | – | Active | Active | – | – | – | – | – | – | – | – | – | – | –
Dose-dependent effect | < 10 | CCc1oc2ccccc2c1C(=O)c1cc(Br)c(O)c(Br)c1 [BENZBROMARONE] | Toxic | Active | – | – | Non-Toxic | Active | Non-Toxic | Dose-dependent effect | Dose-dependent effect | Dose-dependent effect | Dose-dependent effect | inactive | Active | Active | inhibition (HUVEC [14]): Active; TGI (A673): Active; inhibition [22]: inactive
– | – | Cc1oc2ccccc2c1C(=O)c1cc(I)c(O)c(I)c1 | – | inactive | Active | Active | – | – | – | – | – | – | – | – | – | – | –
– | – | Cc1oc2ccccc2c1C(=O)c1ccc(O)c(I)c1 | – | inactive | Active | Active | – | – | – | – | – | – | – | – | – | – | –
– | – | CC(O)CCc1oc2ccccc2c1C(=O)c1cc(I)c(O)c(I)c1 (stereo not given) | – | inactive | Active | Active | – | – | – | – | – | – | – | – | – | – | –
– | – | CCCCc1oc2ccccc2c1C(=O)c1cc(I)c(O)c(I)c1 | – | inactive | Active | Active | – | – | – | – | – | – | – | – | – | – | –
– | – | CCc1oc2ccc(O)cc2c1C(=O)c1cc(Br)c(O)c(Br)c1 | – | inactive | Active | Active | – | – | – | – | – | – | – | – | – | – | –
Dose-dependent effect | < 10 | CCc1oc2ccccc2c1C(=O)c1ccc(O)cc1 [BENZARONE] | Toxic | Active | – | – | Non-Toxic | Active | Non-Toxic | Dose-dependent effect | Dose-dependent effect | Dose-dependent effect | Dose-dependent effect | inactive | Active | Active | Ratio IC50 [23]: > 100; inhibition [24]: > 50%; inhibition (HUVEC [25]): Dose-dependent effect; inhibition at 2.5 µM (HUVEC [26]): 50%; inhibition (Mus musculus [27]): Active
Dose-dependent effect | < 10 | CCCCc1oc2ccccc2c1C(=O)c1ccc(O)cc1 | – | – | – | – | Non-Toxic | Active | Non-Toxic | Dose-dependent effect | Dose-dependent effect | Dose-dependent effect | Dose-dependent effect | inactive | Active | Active | inhibition (HUVEC [14]): Active
